According to patent US20240382483A1, “HETEROCYCLIC EGFR INHIBITORS FOR USE IN THE TREATMENT OF CANCER” (Blueprint Medicines Corporation, priority 2021, published 2024):
Where a name gives a salt, the structure may show the parent alone. Read-outs that look alike come from different tables or passages of the source.

Columns and labels:
[1] = tested on: EGFR mutant NSCLC (EGFR M+); details: NSCLC patients; cited from earlier work
EGFR (L858R T790M C797S) = target: T1, EGFR (L858R T790M C797S) (Homo sapiens, UniProt P00533, C797S/L858R/T790M); experiment: Biochemical EGFR inhibition assay (Caliper mobility shift), EGFR LRTMCS; details: LRTMCS (PH) IC50 (nM) @ 1 mM ATP (Num), EGFR LRTMCS mutant
T1 construct: purchased SignalChem E10-122VG
Outline: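 Kinase reactions at 25 °C run to 10–20% peptide phosphorylation, stopped with 35 mM EDTA. Phosphorylated product and substrate separated electrophoretically by mobility shift. Apparent IC50 from percent activity versus log compound concentration.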

[2] = target: T2, intracellular phosphorylation of EGFR in NCI-H1975 cell line that harbors the EGFR L858R T790M mutations (Homo sapiens, UniProt P00533, L858R/T790M); experiment: NCI-H1975 pEGFR AlphaLISA assay; assay type: cell-based; details: NCI-H1975 cells (EGFR L858R T790M), p-EGFR (Tyr1068), 4-5 hours incubation
T2 construct: NCI-H1975 cell line that harbors the EGFR L858R T790M mutations (ATCC, CRL-5908); host or cells: NCI-H1975
Experimental: On the next day, the test compounds and DMSO control were added into H1975 cell plate followed by incubation at 37C/5% CO2 for 4-5 hours. […] Then 5 μL of a donor bead mix was added to each well followed by overnight incubation at room temperature in dark. On the next day, the plate was read at a compatible plate reader to obtain pEGFR signal. Percent of pEGFR inhibition was plotted against log concentration of compounds to generate IC50 values.

[3] = read-out: Ext pEGFR H1975 GMean IC50 (nM) Protocol: @Pharmaron AlphaLISA (Num)

T1 sequence (P00533 25-1210 T790M/C797S/L858R): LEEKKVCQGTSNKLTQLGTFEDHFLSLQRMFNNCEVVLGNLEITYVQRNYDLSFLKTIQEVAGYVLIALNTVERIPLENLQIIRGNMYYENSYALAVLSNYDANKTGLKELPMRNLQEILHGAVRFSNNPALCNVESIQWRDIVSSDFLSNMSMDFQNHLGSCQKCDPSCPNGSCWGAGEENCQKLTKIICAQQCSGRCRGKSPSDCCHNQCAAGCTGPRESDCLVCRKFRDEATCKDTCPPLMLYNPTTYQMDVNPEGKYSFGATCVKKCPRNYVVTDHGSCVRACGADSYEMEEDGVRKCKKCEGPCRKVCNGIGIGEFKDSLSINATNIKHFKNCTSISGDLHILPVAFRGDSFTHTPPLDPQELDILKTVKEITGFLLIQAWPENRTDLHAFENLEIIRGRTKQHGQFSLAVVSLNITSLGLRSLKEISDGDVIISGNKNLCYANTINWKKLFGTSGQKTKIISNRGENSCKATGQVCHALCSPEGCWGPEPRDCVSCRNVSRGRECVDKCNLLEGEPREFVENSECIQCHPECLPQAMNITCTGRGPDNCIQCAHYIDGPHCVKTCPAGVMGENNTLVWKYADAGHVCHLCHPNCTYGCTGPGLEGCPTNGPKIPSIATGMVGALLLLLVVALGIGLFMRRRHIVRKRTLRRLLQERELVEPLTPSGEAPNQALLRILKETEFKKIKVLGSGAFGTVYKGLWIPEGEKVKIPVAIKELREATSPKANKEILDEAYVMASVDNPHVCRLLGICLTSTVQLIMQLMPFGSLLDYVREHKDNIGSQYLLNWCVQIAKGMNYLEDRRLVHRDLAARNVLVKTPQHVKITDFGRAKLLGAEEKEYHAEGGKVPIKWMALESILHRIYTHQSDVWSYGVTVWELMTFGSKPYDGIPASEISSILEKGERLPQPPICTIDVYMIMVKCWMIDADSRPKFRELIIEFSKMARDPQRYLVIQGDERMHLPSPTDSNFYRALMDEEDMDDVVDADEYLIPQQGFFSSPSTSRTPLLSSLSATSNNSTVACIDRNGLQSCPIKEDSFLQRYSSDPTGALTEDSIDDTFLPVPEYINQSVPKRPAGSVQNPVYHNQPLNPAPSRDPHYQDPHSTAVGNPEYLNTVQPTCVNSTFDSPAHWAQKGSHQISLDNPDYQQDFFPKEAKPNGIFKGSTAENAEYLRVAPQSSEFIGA
T2 sequence (P00533 25-1210 T790M/L858R): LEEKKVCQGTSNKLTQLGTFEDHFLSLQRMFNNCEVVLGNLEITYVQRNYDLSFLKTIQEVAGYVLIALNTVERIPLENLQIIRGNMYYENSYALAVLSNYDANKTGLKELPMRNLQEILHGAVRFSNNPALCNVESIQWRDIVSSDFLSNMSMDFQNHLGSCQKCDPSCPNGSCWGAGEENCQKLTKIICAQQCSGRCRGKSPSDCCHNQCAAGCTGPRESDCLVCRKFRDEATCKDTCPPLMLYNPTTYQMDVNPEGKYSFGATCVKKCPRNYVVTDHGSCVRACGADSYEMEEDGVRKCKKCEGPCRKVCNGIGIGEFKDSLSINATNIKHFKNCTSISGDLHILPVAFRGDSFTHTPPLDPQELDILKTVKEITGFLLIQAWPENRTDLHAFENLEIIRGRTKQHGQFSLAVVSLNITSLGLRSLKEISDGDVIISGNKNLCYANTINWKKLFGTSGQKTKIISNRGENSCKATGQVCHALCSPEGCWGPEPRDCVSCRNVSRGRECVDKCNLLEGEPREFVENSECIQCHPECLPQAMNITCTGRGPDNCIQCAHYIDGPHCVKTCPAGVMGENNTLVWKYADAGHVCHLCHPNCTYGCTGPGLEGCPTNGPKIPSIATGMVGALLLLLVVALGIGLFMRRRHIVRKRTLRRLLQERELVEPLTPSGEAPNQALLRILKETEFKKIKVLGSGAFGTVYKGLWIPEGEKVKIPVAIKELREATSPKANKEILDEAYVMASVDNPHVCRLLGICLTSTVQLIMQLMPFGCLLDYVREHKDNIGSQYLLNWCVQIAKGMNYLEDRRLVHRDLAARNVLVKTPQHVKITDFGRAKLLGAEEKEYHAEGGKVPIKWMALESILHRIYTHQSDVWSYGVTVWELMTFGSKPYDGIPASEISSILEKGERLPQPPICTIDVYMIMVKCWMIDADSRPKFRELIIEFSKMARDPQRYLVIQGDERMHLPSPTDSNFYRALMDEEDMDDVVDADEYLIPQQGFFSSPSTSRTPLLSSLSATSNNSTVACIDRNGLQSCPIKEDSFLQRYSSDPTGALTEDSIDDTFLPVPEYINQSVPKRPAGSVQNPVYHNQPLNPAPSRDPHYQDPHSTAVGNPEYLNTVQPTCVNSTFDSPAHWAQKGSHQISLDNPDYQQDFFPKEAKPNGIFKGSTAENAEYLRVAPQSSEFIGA

SMILES | IC50 (EGFR (L858R T790M C797S)) | IC50 [2, 3] | IC50 ([2]; Ext pEGFR H1975 GMean IC50 (nM) Protocol: @Pharmaron AlphaLISA (Num)) | time of treatment until resistance [1]
C=CC(=O)Nc1cc(Nc2nccc(-c3cn(C)c4ccccc34)n2)c(OC)cc1N(C)CCN(C)C [osimertinib] |  |  |  | approximately 10 months
CO[C@@H]1CCN(c2nccc(Nc3cc4c(C(C)C)ccc(N5C[C@H](O)[C@H]5C)c4cn3)n2)C[C@@H]1O (single isomer, unassigned) [Example 123, (3S,4R)-1-(4-((8-((2R,3S)-3-hydroxy-2-methylazetidin-1-yl)-5-isopropylisoquinolin-3-yl)amino)pyrimidin-2-yl)-4-methoxypiperidin-3-ol-ol or (3R,4S)-1-(4-((8-((2R,3S)-3-hydroxy-2-methylazetidin-1-yl)-5-isopropylisoquinolin-3-yl)amino)pyrimidin-2-yl)-4-methoxypiperidin-3-ol] | 15 to 20 nM | > 50 nM |  | 
Cc1c(-c2ncc(C(C)C)c3cc(Nc4ccnc(N5CC[C@@H](O)[C@@](C)(F)C5)n4)ncc23)nnn1C [Example 17, (3S,4R)-1-(4-((8-(1,5-dimethyl-1H-1,2,3-triazol-4-yl)-5-isopropyl-2,7-naphthyridin-3-yl)amino)pyrimidin-2-yl)-3-fluoro-3-methylpiperidin-4-ol] | < 15 nM | 10 to 20 nM |  | 
Cc1nc(-c2ncc(C(C)C)c3cc(Nc4ccnc(N5CC[C@@H](O)[C@@](C)(F)C5)n4)ncc23)n[nH]1 [Example 24, (3S,4R)-3-fluoro-1-(4-((5-isopropyl-8-(5-methyl-1H-1,2,4-triazol-3-yl)-2,7-naphthyridin-3-yl)amino)pyrimidin-2-yl)-3-methylpiperidin-4-ol] | < 15 nM | 30 to 50 nM |  | 
CC(C)c1cnc(N2CC[C@]3(C2)CC3(F)F)c2cnc(Nc3ccnc(N4CC[C@@H](O)[C@@](C)(F)C4)n3)cc12 (single isomer, unassigned) [Example 214, (3S,4R)-1-(4-((8-((R)-1,1-difluoro-5-azaspiro[2.4]heptan-5-yl)-5-isopropyl-2,7-naphthyridin-3-yl)amino)pyrimidin-2-yl)-3-fluoro-3-methylpiperidin-4-ol or (3S,4R)-1-(4-((8-((S)-1,1-difluoro-5-azaspiro[2.4]heptan-5-yl)-5-isopropyl-2,7-naphthyridin-3-yl)amino)pyrimidin-2-yl)-3-fluoro-3-methylpiperidin-4-ol] | 30 to 100 nM | 30 to 50 nM |  | 
CC(C)c1cnc(N2CC[C@H]2C)c2cnc(Nc3cnnc(N4CC[C@@H](O)[C@@](C)(F)C4)n3)cc12 (single isomer, unassigned) [Example 179, (3S,4R)-3-fluoro-1-(5-((5-isopropyl-8-((R)-2-methylazetidin-1-yl)-2,7-naphthyridin-3-yl)amino)-1,2,4-triazin-3-yl)-3-methylpiperidin-4-ol or (3R,4S)-3-fluoro-1-(5-((5-isopropyl-8-((R)-2-methylazetidin-1-yl)-2,7-naphthyridin-3-yl)amino)-1,2,4-triazin-3-yl)-3-methylpiperidin-4-ol] | < 15 nM | 10 to 20 nM |  | 
CC(C)c1cnc(N2CC[C@H]2CO)c2cnc(Nc3ccnc(N4CC[C@@H](O)[C@@](C)(F)C4)n3)cc12 [Example 52, (3S,4R)-3-fluoro-1-(4-((8-((S)-2-(hydroxymethyl)azetidin-1-yl)-5-isopropyl-2,7-naphthyridin-3-yl)amino)pyrimidin-2-yl)-3-methylpiperidin-4-ol] | < 15 nM | < 10 nM |  | 
CC(C)c1cnc(N2CC(CO)C2)c2cnc(Nc3ccnc(N4CC[C@@H](O)[C@@](C)(F)C4)n3)cc12 [Example 61, (3S,4R)-3-fluoro-1-(4-((8-(3-(hydroxymethyl)azetidin-1-yl)-5-isopropyl-2,7-naphthyridin-3-yl)amino)pyrimidin-2-yl)-3-methylpiperidin-4-ol] | < 15 nM | 30 to 50 nM |  | 
CC(C)c1cnc(N2CC[C@H]2CN(C)C)c2cnc(Nc3ccnc(N4CC[C@@H](O)[C@@](C)(F)C4)n3)cc12 [Example 48, (3S,4R)-1-(4-((8-((S)-2-((dimethylamino)methyl)azetidin-1-yl)-5-isopropyl-2,7-naphthyridin-3-yl)amino)pyrimidin-2-yl)-3-fluoro-3-methylpiperidin-4-ol trifluoroacetate] | < 15 nM | 10 to 20 nM |  | 
CC(C)c1cnc(N2CC(C#N)(CO)C2)c2cnc(Nc3ccnc(N4CC[C@@H](O)[C@@](C)(F)C4)n3)cc12 [Example 73, 1-(6-((2-((3S,4R)-3-fluoro-4-hydroxy-3-methylpiperidin-1-yl)pyrimidin-4-yl)amino)-4-isopropyl-2,7-naphthyridin-1-yl)-3-(hydroxymethyl)azetidine-3-carbonitrile] | 30 to 100 nM | > 50 nM |  | 

Second part, led by results:

IC50 (EGFR (L858R T790M C797S)) | IC50 [2, 3] | IC50 ([2]; Ext pEGFR H1975 GMean IC50 (nM) Protocol: @Pharmaron AlphaLISA (Num)) | SMILES | time of treatment until resistance [1]
< 15 nM | 10 to 20 nM |  | C[C@@H](CO)c1cnc(N2CC[C@@H]2C)c2cnc(Nc3ccnc(N4CC[C@@H](O)[C@@](C)(F)C4)n3)cc12 (single isomer, unassigned) [Example 189] | 
< 15 nM | 20 to 30 nM |  | CO[C@@H]1CCN(c2nccc(Nc3cc4c(C(C)C)cnc(N5CC(O)C5)c4cn3)n2)C[C@@H]1F [Example 147, 1-(6-((2-((3S,4R)-3-fluoro-4-methoxypiperidin-1-yl)pyrimidin-4-yl)amino)-4-isopropyl-2,7-naphthyridin-1-yl)azetidin-3-ol] | 
< 15 nM |  | 30 to 50 nM | C[C@@H]1CCN1c1ncc(-c2cccnc2F)c2cc(Nc3ccnc(N4CC[C@@H](O)[C@@H](F)C4)n3)ncc12 (single isomer, unassigned) [Example 161, (3S,4R)-3-fluoro-1-(4-((5-(2-fluoropyridin-3-yl)-8-((R)-2-methylazetidin-1-yl)-2,7-naphthyridin-3-yl)amino)pyrimidin-2-yl)piperidin-4-ol or (3S,4R)-3-fluoro-1-(4-((5-(2-fluoropyridin-3-yl)-8-((S)-2-methylazetidin-1-yl)-2,7-naphthyridin-3-yl)amino)pyrimidin-2-yl)piperidin-4-ol] | 
30 to 100 nM | > 50 nM |  | C[C@H](CO)c1cnc(N2CC[C@H]2C)c2cnc(Nc3ccnc(N4C[C@@H](F)[C@@H](O)C(C)(C)C4)n3)cc12 (single isomer, unassigned) [Example 187] | 
